From PubChem BioAssay (NCI)
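Tested at 5 concentrations; 48 h exposure; 96-well plates; endpoints linearly interpolated, else capped at highest concentration. At the GI50, growth is halved. TGI denotes the concentration required for complete inhibition of growth.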

Assays:
Assay in all cases: NCI-60 cell line screen, 48 h
786-0 renal = system: 786-0 renal
A498 renal = system: A498 renal
A549 NSCLC = system: A549 NSCLC
ACHN renal = system: ACHN renal
BT-549 breast = system: BT-549 breast
CAKI-1 renal = system: CAKI-1 renal
CCRF-CEM leukemia = system: CCRF-CEM leukemia
COLO 205 colon = system: COLO 205 colon
DU-145 prostate = system: DU-145 prostate
EKVX NSCLC = system: EKVX NSCLC
HCC-2998 colon = system: HCC-2998 colon
HCT-116 colon = system: HCT-116 colon
HCT-15 colon = system: HCT-15 colon
HL-60(TB) leukemia = system: HL-60(TB) leukemia
HOP-62 NSCLC = system: HOP-62 NSCLC
HOP-92 NSCLC = system: HOP-92 NSCLC
HS 578T breast = system: HS 578T breast
HT29 colon = system: HT29 colon
IGROV1 ovarian = system: IGROV1 ovarian
K-562 leukemia = system: K-562 leukemia
KM12 colon = system: KM12 colon
LOX IMVI melanoma = system: LOX IMVI melanoma
M14 melanoma = system: M14 melanoma
MALME-3M melanoma = system: MALME-3M melanoma
MCF7 breast = system: MCF7 breast
MDA-MB-231 breast = system: MDA-MB-231 breast
MDA-MB-435 = system: MDA-MB-435
MOLT-4 leukemia = system: MOLT-4 leukemia
NCI-H226 lung = system: NCI-H226 lung
NCI-H23 lung = system: NCI-H23 lung
NCI-H460 lung = system: NCI-H460 lung
NCI-H522 lung = system: NCI-H522 lung
NCI/ADR-RES ovarian = system: NCI/ADR-RES ovarian
OVCAR-3 ovarian = system: OVCAR-3 ovarian
OVCAR-4 ovarian = system: OVCAR-4 ovarian
OVCAR-5 ovarian = system: OVCAR-5 ovarian
OVCAR-8 ovarian = system: OVCAR-8 ovarian
PC-3 prostate = system: PC-3 prostate
RPMI-8226 leukemia = system: RPMI-8226 leukemia
RXF 393 renal = system: RXF 393 renal
SF-268 CNS = system: SF-268 CNS
SF-295 CNS = system: SF-295 CNS
SF-539 CNS = system: SF-539 CNS
SK-MEL-2 melanoma = system: SK-MEL-2 melanoma
SK-MEL-28 melanoma = system: SK-MEL-28 melanoma
SK-MEL-5 melanoma = system: SK-MEL-5 melanoma
SK-OV-3 ovarian = system: SK-OV-3 ovarian
SN12C renal = system: SN12C renal
SNB-19 CNS = system: SNB-19 CNS
SNB-75 CNS = system: SNB-75 CNS
SR leukemia = system: SR leukemia
SW-620 colon = system: SW-620 colon
T-47D breast = system: T-47D breast
TK-10 renal = system: TK-10 renal
U251 CNS = system: U251 CNS
UACC-257 melanoma = system: UACC-257 melanoma
UACC-62 melanoma = system: UACC-62 melanoma
UO-31 renal = system: UO-31 renal

For C[C@H]1[C@H]2[C@H]3CC[C@@H]4[C@@]5(C)C/C(=C/c6cccnc6)C(=O)C(C)(C)[C@@H]5CC[C@@]4(C)[C@]3(C)CC[C@]23CO[C@]1(C)[C@@H](C(=O)/C=C\c1cccnc1)C3, the GI50 (786-0 renal) was 0.905 µM, the TGI (786-0 renal) was 1.95 µM and the GI50 (A498 renal) was 0.661 µM. For the same compound, the TGI (A498 renal) was 1.54 µM, the GI50 (A549 NSCLC) was 1.22 µM and the TGI (A549 NSCLC) was 3.29 µM. For the same compound, the GI50 (ACHN renal) was 1.49 µM, the TGI (ACHN renal) was 4.81 µM and the GI50 (BT-549 breast) was 0.785 µM. For the same compound, the TGI (BT-549 breast) was 1.83 µM, the GI50 (CAKI-1 renal) was 1.45 µM and the TGI (CAKI-1 renal) was greater than 15.4 µM. For the same compound, the GI50 (CCRF-CEM leukemia) was 0.44 µM, the TGI (CCRF-CEM leukemia) was greater than 50 µM and the GI50 (COLO 205 colon) was 1.43 µM. It also gave a TGI (COLO 205 colon) of 4.53 µM, a GI50 (DU-145 prostate) of 0.923 µM and a TGI (DU-145 prostate) of 1.71 µM. The GI50 (EKVX NSCLC) was 1.56 µM, the TGI (EKVX NSCLC) was 6.4 µM and the GI50 (HCC-2998 colon) was 0.868 µM. It also gave a TGI (HCC-2998 colon) of 1.67 µM, a GI50 (HCT-116 colon) of 0.385 µM and a TGI (HCT-116 colon) of 1.28 µM. The GI50 (HCT-15 colon) was 0.982 µM, the TGI (HCT-15 colon) was 2.56 µM and the GI50 (HL-60(TB) leukemia) was 0.794 µM. The TGI (HL-60(TB) leukemia) was 2.53 µM, the GI50 (HOP-62 NSCLC) was 1.47 µM and the TGI (HOP-62 NSCLC) was greater than 15 µM. It also gave a GI50 (HOP-92 NSCLC) of 0.844 µM, a TGI (HOP-92 NSCLC) of 3.11 µM and a GI50 (HS 578T breast) of 1.44 µM. The TGI (HS 578T breast) was 7.4 µM, the GI50 (HT29 colon) was 1.16 µM and the TGI (HT29 colon) was 3.73 µM. For the same compound, the GI50 (IGROV1 ovarian) was 0.975 µM, the TGI (IGROV1 ovarian) was 2.2 µM and the GI50 (K-562 leukemia) was 0.151 µM. The TGI (K-562 leukemia) was greater than 50 µM, the GI50 (KM12 colon) was 0.892 µM and the TGI (KM12 colon) was 1.86 µM. It also gave a GI50 (LOX IMVI melanoma) of 0.783 µM, a TGI (LOX IMVI melanoma) of 1.57 µM and a GI50 (M14 melanoma) of 1.57 µM. For the same compound, the TGI (M14 melanoma) was 11.9 µM, the GI50 (MALME-3M melanoma) was 0.849 µM and the TGI (MALME-3M melanoma) was 1.91 µM. The GI50 (MCF7 breast) was 0.842 µM, the TGI (MCF7 breast) was 6.25 µM and the GI50 (MDA-MB-231 breast) was 1.27 µM. It also gave a TGI (MDA-MB-231 breast) of 8.01 µM, a GI50 (MDA-MB-435) of 1.17 µM and a TGI (MDA-MB-435) of 2.93 µM. For the same compound, the GI50 (MOLT-4 leukemia) was 0.524 µM, the GI50 (NCI-H226 lung) was 0.97 µM and the TGI (NCI-H226 lung) was 2.1 µM. The GI50 (NCI-H23 lung) was 1.03 µM, the TGI (NCI-H23 lung) was 2.48 µM and the GI50 (NCI-H460 lung) was 0.929 µM. For the same compound, the TGI (NCI-H460 lung) was 1.94 µM, the GI50 (NCI-H522 lung) was 1.15 µM and the TGI (NCI-H522 lung) was 3.07 µM. For the same compound, the GI50 (NCI/ADR-RES ovarian) was 1.54 µM, the TGI (NCI/ADR-RES ovarian) was greater than 50 µM and the GI50 (OVCAR-3 ovarian) was 0.886 µM. The TGI (OVCAR-3 ovarian) was 1.91 µM, the GI50 (OVCAR-4 ovarian) was 1.5 µM and the TGI (OVCAR-4 ovarian) was greater than 50 µM. It also gave a GI50 (OVCAR-5 ovarian) of 1.46 µM, a TGI (OVCAR-5 ovarian) of 4.43 µM and a GI50 (OVCAR-8 ovarian) of 1.59 µM. The TGI (OVCAR-8 ovarian) was greater than 50 µM, the GI50 (PC-3 prostate) was 0.498 µM and the TGI (PC-3 prostate) was 3.37 µM. The GI50 (RPMI-8226 leukemia) was 0.255 µM, the TGI (RPMI-8226 leukemia) was 2.26 µM and the GI50 (RXF 393 renal) was 0.824 µM. The TGI (RXF 393 renal) was 1.56 µM, the GI50 (SF-268 CNS) was 1.27 µM and the TGI (SF-268 CNS) was 4.17 µM. It also gave a GI50 (SF-295 CNS) of 1.38 µM, a TGI (SF-295 CNS) of 6.21 µM and a GI50 (SF-539 CNS) of 1.03 µM. For the same compound, the TGI (SF-539 CNS) was 2.31 µM, the GI50 (SK-MEL-2 melanoma) was 1.21 µM and the TGI (SK-MEL-2 melanoma) was 2.83 µM. The GI50 (SK-MEL-28 melanoma) was 1.02 µM, the TGI (SK-MEL-28 melanoma) was 2.2 µM and the GI50 (SK-MEL-5 melanoma) was 0.836 µM. It also gave a TGI (SK-MEL-5 melanoma) of 1.54 µM, a GI50 (SK-OV-3 ovarian) of 5.9 µM and a TGI (SK-OV-3 ovarian) greater than 50 µM. The GI50 (SN12C renal) was 1.1 µM, the TGI (SN12C renal) was greater than 11.8 µM and the GI50 (SNB-19 CNS) was 0.869 µM. The TGI (SNB-19 CNS) was 1.76 µM, the GI50 (SNB-75 CNS) was 0.99 µM and the TGI (SNB-75 CNS) was 3.69 µM. The GI50 (SR leukemia) was 0.371 µM, the GI50 (SW-620 colon) was 1.02 µM and the TGI (SW-620 colon) was 2.51 µM. The GI50 (T-47D breast) was 1.98 µM, the TGI (T-47D breast) was greater than 50 µM and the GI50 (TK-10 renal) was 1.72 µM. It also gave a TGI (TK-10 renal) of 8.21 µM, a GI50 (U251 CNS) of 0.964 µM and a TGI (U251 CNS) of 2.07 µM. It also gave a GI50 (UACC-257 melanoma) of 1.74 µM, a TGI (UACC-257 melanoma) of 9.85 µM and a GI50 (UACC-62 melanoma) of 0.67 µM. The TGI (UACC-62 melanoma) was 1.67 µM, the GI50 (UO-31 renal) was 0.675 µM and the TGI (UO-31 renal) was 1.37 µM.
